Laboratory results published in patent publication US10899754B2, “Modulators of indoleamine 2,3-dioxygenase” (GLAXOSMITHKLINE INTELLECTUAL PROPERTY DEVELOPMENT LIMITED, priority 2016, dated 2021).

What was measured:
Type in all cases: cell-based
[1] = system: human peripheral blood mononuclear cells (PBMC); test: PBMC cytotoxicity assay (CellTiter-Glo); details: 2 days, pCC50
Outline: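 % cytotoxicity was taken from CellTiter-Glo luminescence, using wells without cells and stimulated DMSO wells as references, and fitted by four-parameter curve to give XC50. Cells were human PBMC at 50,000 per well, activated with 100 ng/ml IFN-γ plus 50 ng/ml LPS. Incubation with 11-point, 3-fold dilution series ran for 2 days at 37 °C.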

[2] = system: human epithelial HeLa cells; test: HeLa cytotoxicity assay (CellTiter-Glo); details: pCC50
Outline: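 Read-out is CellTiter-Glo luminescence after 2 days at 37 °C, on IFN-γ-stimulated (10 nM) HeLa cells seeded at 5,000/well with compounds in 11-point 3-fold dose series. pCC50 from four-parameter curve fit; wells without cells set 100% cytotoxicity, stimulated cells with DMSO set 0%.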

[3] = molecular target: T1, indoleamine 2, 3-dioxygenase (IDO1) (Homo sapiens, UniProt P14902); test: IDO1 HeLa RapidFire MS assay (kynurenine detection by mass spectrometry); design: to induce the expression of indoleamine 2, 3-dioxygenase (IDO1); details: HeLa cells, pIC50, read-out: IDO1_HELA_PXC50 (converted)
T1 sequence (P14902 whole entry): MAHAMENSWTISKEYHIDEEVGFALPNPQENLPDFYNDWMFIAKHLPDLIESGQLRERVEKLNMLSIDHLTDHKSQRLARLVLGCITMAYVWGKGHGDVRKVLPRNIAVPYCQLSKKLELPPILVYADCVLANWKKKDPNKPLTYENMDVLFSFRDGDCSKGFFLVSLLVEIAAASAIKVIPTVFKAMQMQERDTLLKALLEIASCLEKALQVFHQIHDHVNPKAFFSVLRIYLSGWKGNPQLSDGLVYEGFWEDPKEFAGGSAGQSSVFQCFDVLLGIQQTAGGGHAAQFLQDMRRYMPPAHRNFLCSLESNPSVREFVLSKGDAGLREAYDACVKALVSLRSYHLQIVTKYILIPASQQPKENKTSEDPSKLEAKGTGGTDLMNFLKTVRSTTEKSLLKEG
Outline: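 Compound potency reported as pIC50 from kynurenine/internal-standard ratio (RapidFire MS) in supernatant of IFN-γ-induced (10 nM) HeLa cells, 5,000 per well, after 2 days' treatment with 11-point dilutions. Cytotoxicity in the same format by luminescent ATP detection, reported as pCC50.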

[4] = molecular target: T1, indoleamine 2, 3-dioxygenase (IDO1); test: IDO1 PBMC RapidFire MS assay (kynurenine detection by mass spectrometry); design: to induce the expression of indoleamine 2, 3-dioxygenase (IDO1); host or cells: human PBMC stimulated with IFN-gamma and LPS; details: human PBMC stimulated with IFN-γ and LPS, 2 days, pIC50, read-out: PBMC PXC50 (converted)
Outline: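 Kynurenine output, read by RapidFire mass spectrometry as ratio to an internal standard, was measured after 2-day compound exposure (11-point, 3-fold dilutions) of human PBMCs induced with 100 ng/ml IFN-γ and 50 ng/ml LPS. Cell viability tracked alongside via ATP luminescence; XC50 from curve fitting.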

| SMILES | PBMC TOX PXC50 [1] | HELA_IDO1_TOX_PXC50 [2] | IC50 [3] [nM] | IC50 [4] [nM] |
| --- | --- | --- | --- | --- |
| CC(C)CN(c1ccc([C@H](C)CC(=O)O)cc1Nc1cnc(C#N)cn1)C1CCOCC1 [Example 19, (R)-3-(3-((5-cyanopyrazin-2-yl)amino)-4-(isobutyl(tetrahydro-2H-pyran-4-yl)amino)phenyl)butanoic Acid] | <5 | <5 | 5.01 | 2.51 |
| CC(C)CN(c1ccc([C@H](C)CC(=O)O)cc1Nc1nc(C(F)(F)F)cs1)C1CCOCC1 [Example 22, (R)-3-(4-(Isobutyl(tetrahydro-2H-pyran-4-yl)amino)-3-((4-(trifluoromethyl)thiazol-2-yl)amino)phenyl)butanoic Acid] | <5 | <5 | 2.51 | 2.51 |
| CC(C)CN(c1ccc([C@@H](C)CC(=O)O)cc1Nc1ccnc(Cl)n1)C1CCCCC1 [example 300] | <5 | <5 | 3.98 | 2.51 |
| Cc1nnc(Nc2cc(-c3ccccc3C(=O)O)ccc2N(CC(C)C)CC(C)C)s1 [example 298, 4′-[bis(2-methylpropyl)amino]-3′-[(5-methyl-1,3,4-thiadiazol-2-yl)amino]-[1,1′-biphenyl]-2-carboxylic acid] | <5 | <5 | 251 | 39.8 |
| CC(C)CN(CC(C)C)c1ccc(-c2ccccc2C(=O)O)cc1Nc1nc(C2CC2)ns1 [example 288, 4′-[bis(2-methylpropyl)amino]-3′-[(3-cyclopropyl-1,2,4-thiadiazol-5-yl)amino]-[1,1′-biphenyl]-2-carboxylic acid] | <5 | <5 | 316 | 100 |
| CC(C)CN(CC(C)C)c1ccc(-c2ccccc2C(=O)O)cc1Nc1nc(Cl)ns1 [example 294, 4′-[bis(2-methylpropyl)amino]-3′-[(3-chloro-1,2,4-thiadiazol-5-yl)amino]-[1,1′-biphenyl]-2-carboxylic acid] | <5 | <5 | 39.8 | 20 |
| CC(C)CN(CC(C)C)c1ccc(C(C)CC(=O)O)cc1Nc1nc(-c2ccccc2)ns1 (centres unmarked) [example 115, 3-{4-[bis(2-methylpropyl)amino]-3-[(3-phenyl-1,2,4-thiadiazol-5-yl)amino]phenyl}butanoic acid] | 4.9 | <4.3 | 3160 | 2000 |
| CC(C)CN(c1ccc(C(C)CC(=O)O)cc1NC1CCC(C)CC1)C1CCCCC1 (centres unmarked) [example 158, 3-{4-[cyclohexyl(2-methylpropyl)amino]-3-[(4-methylcyclohexyl)ami-no]phenyl}butanoic acid] | <5 | <5 | 1000 | 631 |
| CC(C)CN(c1ccc([C@H](C)CC(=O)O)cc1NC1CCCC1)C1CCCCC1 [example 179, (3R)-3-{4-[cyclohexyl(2-methylpropyl)amino]-3-(cyclopentylamino)phenyl}butanoic acid] | – | <5 | 251 | 126 |
| CC(C)CN(c1ccc(-c2cnccc2C(=O)O)cc1Nc1nc2ccccc2o1)C1CCCCC1 [example 289, 3-{3-[(1,3-benzoxazol-2-yl)amino]-4-[cyclohexyl(2-methylpropyl)amino]phenyl}pyridine-4-carboxylic acid] | <5 | <5 | 1260 | 501 |
| CC(C)CN(CC(C)C)c1ccc(C(C)CC(=O)O)cc1-n1nnnc1N (centres unmarked) [example 167, 3-[3-(5-amino-1H-1,2,3,4-tetrazol-1-yl)-4-[bis(2-methylpropyl)amino]phenyl]butanoic acid] | <5 | <5 | > 10000 | 6310 |
| COc1ncc(Nc2cc([C@H](C)CC(=O)O)ccc2N(CC(C)C)C2CCOCC2)cn1 [Example 15, (R)-3-(4-(isobutyl(tetrahydro-2H-pyran-4-yl)amino)-3-((2-methoxypyrimidin-5-yl)amino)phenyl)butanoic Acid] | <5 | <5 | 7.94 | 3.16 |
| CC(C)CN(c1cc(F)c([C@H](C)CC(=O)O)cc1Nc1ccc(Cl)nc1)C1CCOCC1 [Example 37, (R)-3-(5-((6-chloropyridin-3-yl)amino)-2-fluoro-4-(isobutyl(tetrahydro-2H-pyran-4-yl)amino)phenyl)butanoic Acid] | <5 | <5 | 5.01 | 1.26 |
| CC(C)CN(CC(C)C)c1ccc(C(C)CC(=O)O)cc1Nc1nc(N2CCN(C)CC2)ns1 (centres unmarked) [example 116, 3-{4-[bis(2-methylpropyl)amino]-3-{[3-(4-methylpiperazin-1-yl)-1,2,4-thiadiazol-5-yl]amino}phenyl}butanoic acid] | <4.3 | <4.3 | 39800 | – |
| CC(C)CN(CC(C)C)c1ccc(C(C)CC(=O)O)cc1Nc1nc(N2CCOCC2)ns1.O=C(O)C(F)(F)F (centres unmarked) [example 117, 3-{4-[bis(2-methylpropyl)amino]-3-{[3-(morpholin-4-yl)-1,2,4-thiadiazol-5-yl]amino}phenyl}butanoic acid] | <4.3 | <4.3 | 3980 | – |
| CC(C)CN(CC(C)C)c1ccc(C(C)CC(=O)O)cc1Nc1nc2ccccc2n1C (centres unmarked) [example 119, 3-{4-[bis(2-methylpropyl)amino]-3-[(1-methyl-1H-1,3-benzodiazol-2-yl)amino]phenyl}butanoic acid] | <4.3 | <4.3 | 1260 | – |
| CC(C)CN(CC(C)C)c1ccc(C(C)CC(=O)O)cc1Nc1nc(N2CCCC2)ns1.O=C(O)C(F)(F)F (centres unmarked) [example 118, 3-{4-[bis(2-methylpropyl)amino]-3-{[3-(pyrrolidin-1-yl)-1,2,4-thiadiazol-5-yl]amino}phenyl}butanoic acid] | <4.3 | <4.3 | 5010 | – |
| CC(C)CN(c1ccc(-c2cn(C)nc2C(=O)O)cc1Nc1nc2ccccc2o1)C1CCCCC1 [example 176, 4-{3-[(1,3-benzoxazol-2-yl)amino]-4-[cyclohexyl(2-methylpropyl)amino]phenyl}-1-methyl-1H-pyrazole-3-carboxylic acid] | – | <5 | 3160 | – |
| CC(C)CN(CC(C)C)c1ccc(C(C)CC(=O)O)cc1Nc1ccsc1 (centres unmarked) [example 143, 3-{4-[bis(2-methylpropyl)amino]-3-[(thiophen-3-yl)amino]phenyl}butanoic acid] | – | <5 | 316 | – |
| CC(C)CN(CC(C)C)c1ccc(C(C)CC(=O)O)cc1Nc1ncc(-c2ccccc2)o1 (centres unmarked) [example 121, 3-{4-[bis(2-methylpropyl)amino]-3-[(5-phenyl-1,3-oxazol-2-yl)amino]phenyl}butanoic acid] | – | 4.4 | 7940 | – |
| CC(C)CN(c1ccc(C(C)CC(=O)O)cc1NC1CCN(C)C1)C1CCCCC1 (centres unmarked) [example 144, 3-{4-[cyclohexyl(2-methylpropyl)amino]-3-[(1-methylpyrrolidin-3-yl)amino]phenyl}butanoic acid] | – | <5 | 3160 | – |
| CC(C)CN(c1ccc(C2CC2C(=O)O)cc1Nc1nc(C(F)(F)F)ns1)C1CCCCC1 (single isomer, unassigned) [Example 105, 2-(4-(cyclohexyl(isobutyl)amino)-3-((3-(trifluoromethyl)-1,2,4-thiadiazol-5-yl)amino)phenyl)cyclopropanecarboxylic Acid] | – | <5 | 6.31 | 3.16 |
| COCc1nnc(Nc2cc(C(C)CC(=O)O)ccc2N(CC(C)C)CC(C)C)s1 (centres unmarked) [example 188, 3-{4-[bis(2-methylpropyl)amino]-3-{[5-(methoxymethyl)-1,3,4-thiadiazol-2-yl]amino}phenyl}butanoic acid] | – | <5 | 126 | – |
| CC(C)CN(CC(C)C)c1ccc(C(C)CC(=O)O)cc1Nc1nnc(N)s1 (centres unmarked) [example 208, 3-{3-[(5-amino-1,3,4-thiadiazol-2-yl)amino]-4-[bis(2-methylpropyl)amino]phenyl}butanoic acid] | – | <5 | 1580 | – |
| CC(C)CN(c1ccc([C@H](C)CC(=O)O)cc1NC(C)C)C1CCCCC1 [example 180, (3R)-3-{4-[cyclohexyl(2-methylpropyl)amino]-3-[(propan-2-yl)amino]phenyl}butanoic acid] | – | <5 | 3980 | – |
